# In patent publication US11994512B2, “Single-cell genomic methods to generate ex vivo cell systems that recapitulate in vivo biology with improved fidelity” (Massachusetts Institute of Technology, priority 2018, dated 2024):
# Test system: intracellular proteome of ENR+CD and ENR organoids
# Assay: LC-MS/MS TMT proteomics of ENR+CD versus ENR organoids
# Type: cell-based, C57BL/6 mice
# Conditions: for change: up = enriched in ENR+CD, down = enriched in ENR, FDR<0.05 and log fold change cut-off
# From the text: Because PCs are highly secretory, protein-rich cells, Applicants sought to assess the total intracellular proteome between conditions through liquid chromatography mass spectrometry (LC-MS/MS)-based proteomics. Applicants quantified relative protein abundance across eight samples using isobaric mass tag labeling from four ENR and four ENR+CD samples (M1-1 through M2-2, first digit denotes biological donor, second digit denotes technical replicate) (FIG. 3A). Samples were processed and analyzed in a single 10-plex by LC-MS/MS (FIG. 9A).
# To affirm the reproducibility of the associated proteins in the ENR+CD-enriched proteome, Applicants performed relative quantification within differentiation sets.
# Mass spectrometry proteomics sample preparation, sequencing, and quantification. Organoid cell pellets were isolated from Matrigel with mechanical dissociation and washed (cold PBS 5X) to remove residual extracellular protein. Proteins were extracted from cell pellets with 8 M urea (Sigma), reduced with 5 mM DTT (Thermo Fisher Pierce) for 45 minutes, alkylated with 10 mM IAA (Sigma) for 45 minutes in the dark, and double digested with both Lysyl Endopeptidase “LysC” (Wako) and trypsin (Promega) overnight at RT. A small aliquot of cellular lysate was removed from each sample for protein quantification via the Pierce™ BCA Protein Assay Kit (Pierce). After proteolytic digestion, the samples were quenched using formic acid to a final concentration of 1.0% and subsequently desalted on 10 mg OASIS HLB solid phase columns (Waters).
# The peptides were labeled with TMT-10 isobaric mass tag reagent according to manufacturer's instructions (ThermoFisher Scientific). The peptides were labeled at a 1:8 ratio of peptide to TMT reagent, followed by 1-hour incubation at RT with bench top shaking at 850 rpm. After incubation, a […] of labeled tryptic peptide was removed from each labeled condition, desalted with C18 stage tips, and analyzed via LC-MS/MS using a Thermo Fisher Q Exactive Plus Hybrid Mass Spectrometer (QE-Plus) coupled to a Thermo Fisher EASY-nLC 1000 liquid chromatograph to ensure isobaric label incorporation >95%. An additional 1.0 μg of labeled tryptic peptide was removed from each channel, mixed together, desalted on a C18 stage tip, and analyzed via LC-MS to ensure equal relative protein loads. During these quality control steps, the labeled peptides were stored, unquenched at −80° C.
# [1] = ENR+CD versus ENR organoids, sample pairs in aggregate (n=4, 2 technical replicates from two biological donors)
# [2] = protein abundance ratio ENR+CD versus ENR organoids, sample pair M1-1, LC-MS/MS TMT proteomics
# [3] = protein abundance ratio ENR+CD versus ENR organoids, sample pair M1-2, LC-MS/MS TMT proteomics
# [4] = protein abundance ratio ENR+CD versus ENR organoids, sample pair M2-1, LC-MS/MS TMT proteomics
# [5] = protein abundance ratio ENR+CD versus ENR organoids, sample pair M2-2, LC-MS/MS TMT proteomics
# [6] = protein abundance, ENR+CD versus ENR organoids, aggregate of the four sample pairs
# [7] = protein abundance, ENR+CD versus ENR organoids, replicate M1-1, log2 ratio
# [8] = protein abundance, ENR+CD versus ENR organoids, replicate M1-2, log2 ratio
# [9] = protein abundance, ENR+CD versus ENR organoids, replicate M2-1, log2 ratio
# [10] = protein abundance, ENR+CD versus ENR organoids, replicate M2-2, log2 ratio
Substance,Average logFC [1],M1-1 Log2 Median Normalized [2],M1-2 Log2 Median Normalized [3],M2-1 Log2 Median Normalized [4],M2-2 Log2 Median Normalized [5],change,Average logFC [6],M1-1 Log2 Median Normalized [7],M1-2 Log2 Median Normalized [8],M2-1 Log2 Median Normalized [9],M2-2 Log2 Median Normalized [10]
Q7JJ13,−1.145,−1.243,−0.748,−0.9235,−1.666,down,,,,,
Q6ZWR6,1.168,1.167,0.703,1.1985,1.566,up,,,,,
Q4ACU6,−1.637,−1.525,−1.512,−1.6745,−1.835,down,,,,,
"P84102 (MTRGNQRELARQKNMKKQSDSVKGKRRDDGLSAAARKQRDSEIMQQKQKKANEKKEEPK; full-length; UniProt P84102 1-59, looked up)",,,,,,up,1.286,1.517,0.63,2.2205,0.775
P97479,,,,,,down,−1.162,−1.135,−1.101,−1.2195,−1.191
P07309,,,,,,up,1.249,1.309,0.951,1.2255,1.511
Q9QWG7,−1.142,−1.032,−1.575,−1.8475,−0.115,down,,,,,
Q80TR4,1.235,1.316,1.587,1.2175,0.818,up,,,,,
B9EJA2,,,,,,down,−1.156,−1.439,−1.031,−0.9535,−1.2
P47968,,,,,,down,−1.292,−0.958,−1.223,−1.2935,−1.827
Q8BRB7,−1.345,−0.966,−1.077,−1.3755,−1.962,down,,,,,
P56716,,,,,,up,1.303,0.494,1.733,1.3015,1.329
Q80SU7,−1.224,−1.279,−0.758,−1.2235,−1.338,down,,,,,
P97328,,,,,,down,−1.236,−1.151,−2.263,−1.4115,−0.12
Q91WA1,−1.673,−1.929,−0.883,−1.5765,−2.303,down,,,,,
Q60997,−1.332,−1.643,−0.987,−1.1555,−1.543,down,,,,,
"P56382 (MVAYWRQAGLSYIRFSQICAKAVRDALKTEFKANAEKTSGSSIKIVKVSKKE; full-length; UniProt P56382 1-52, looked up)",,,,,,down,−2.387,−1.051,−3.179,−1.3955,−3.924

Substance,Average logFC [1],M1-1 Log2 Median Normalized [2],M1-2 Log2 Median Normalized [3],M2-1 Log2 Median Normalized [4],M2-2 Log2 Median Normalized [5],change,Average logFC [6],M1-1 Log2 Median Normalized [7],M1-2 Log2 Median Normalized [8],M2-1 Log2 Median Normalized [9],M2-2 Log2 Median Normalized [10]
P02798,,,,,,down,−2.904,−2.904,−2.907,−2.2505,−3.047
P07310,,,,,,down,−2.279,−1.418,−3.14,−2.0165,−2.541
Q91VE6,−1.411,−1.492,−1.242,−1.0275,−1.884,down,,,,,
Q03172,,,,,,up,1.206,0.832,1.656,1.2325,1.102
Q8VHB5,−1.632,−1.611,−1.401,−1.7625,−1.754,down,,,,,
P02802,,,,,,down,−1.725,−2.19,−2.322,−1.3715,−1.016
Q8BHB9,−1.288,−1.576,−1.245,−1.3195,−1.01,down,,,,,
Q9R0M0,1.229,1.297,0.675,1.2135,1.732,up,,,,,
Q9JMC3,1.386,1.758,0.805,1.3105,1.67,up,,,,,
Q9CPS7,−1.227,−1.383,−1.226,−0.9215,−1.327,down,,,,,
Q8R0T2,−1.493,−1.662,−0.647,−0.8365,−2.825,down,,,,,
P09405,,,,,,down,−1.217,−1.377,−0.807,−1.0695,−1.615
O70472,,,,,,up,1.172,1.419,0.87,1.3875,1.011
Q9ET22,1.277,1.451,1.159,1.3455,1.153,up,,,,,
Q52KR3,−1.393,−2.118,−0.268,−1.3905,−1.67,down,,,,,
Q9D937,−1.943,−2.074,−1.942,−1.0675,−2.286,down,,,,,
O70514,,,,,,down,−1.202,−1.413,−1.091,−1.0895,−1.216
